From patent US5063208A, “Peptidyl aminodiol renin inhibitors” (Abbott Laboratories, priority 1990, dated 1991)

Biological target: T1, human renal renin (Homo sapiens, UniProt P00797)
T1 construct: human renal renin, free from acid proteolytic activity; from tissue
T1 sequence (P00797 67-406): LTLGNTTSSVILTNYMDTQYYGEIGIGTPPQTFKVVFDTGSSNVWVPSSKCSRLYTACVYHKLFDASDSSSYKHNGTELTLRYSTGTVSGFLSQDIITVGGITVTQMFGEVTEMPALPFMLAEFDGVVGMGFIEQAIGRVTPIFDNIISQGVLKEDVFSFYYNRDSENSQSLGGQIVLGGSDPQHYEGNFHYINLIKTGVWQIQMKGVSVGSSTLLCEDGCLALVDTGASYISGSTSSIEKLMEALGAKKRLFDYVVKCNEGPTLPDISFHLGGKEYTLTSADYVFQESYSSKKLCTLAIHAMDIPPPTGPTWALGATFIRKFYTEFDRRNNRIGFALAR
Test: Inhibition of human renal renin in vitro (angiotensin I formed measured by radioimmunoassay)
Type: biochemical
Settings: human renal renin free from acid proteolytic activity, renin substrate human angiotensinogen, 37 degrees C, pH 6.0; read-out: IC50 (molar concentration required to cause 50% inhibition)
Method: The compounds of the invention are also useful for treating congestive heart failure in a mammal. […] At the end of the incubation, the amount of angiotensin I formed is measured by radioimmunoassay and the molar concentration required to cause 50% inhibition, expressed as the IC50, is calculated.

Row | SMILES | IC50
1 | CC(C)C[C@H](O)[C@H](O)[C@H](CC1CCCCC1)NC(=O)[C@H](Cn1cccn1)NC(=O)[C@@H](CC(=O)N(C)CCn1cccn1)Cc1ccccc1 [Example 142, (2R)-2-Benzyl-3-[(2-pyrazol-1-ylethyl)methylaminocarbonyl]propionyl-L-(1-pyrazolyl)Ala Amide of (2S,3R,4S)-2-Amino-1-cyclohexyl-3,4-dihydroxy-6-methylheptane] | 0.19 nM
2 | CC(C)C[C@H](O)[C@H](O)[C@H](CC1CCCCC1)NC(=O)[C@H](Cc1cscn1)NC(=O)[C@@H](CC(=O)N1CCN(CC(F)(F)F)CC1)Cc1ccccc1 [Example 94, (2R)-2-Benzyl-3-(4-trifluoroethylpiperazin-1-ylcarbonyl)propionyl-L-(4-thiazolyl)Ala Amide of (2S,3R,4S)-2-Amino-1-cyclohexyl-3,4-dihydroxy-6-methylheptane] | 0.57 nM
3 | CCCC[C@H](NC(=O)[C@@H](CC(=O)N(C)CCc1ccccn1)Cc1ccccc1)C(=O)N[C@@H](CC1CCCCC1)[C@@H](O)[C@@H](O)CC(C)C [Example 122, (2R)-2-Benzyl-3-[(2-pyridin-2-ylethyl)methylaminocarbonyl]propionyl-Nle Amide of (2S,3R,4S)-2-Amino-1-cyclohexyl-3,4-dihydroxy-6-methylheptane] | 0.43 nM
4 | CC(C)C[C@H](O)[C@H](O)[C@H](CC1CCCCC1)NC(=O)[C@H](Cc1cscn1)NC(=O)[C@@H](Cc1ccccc1)CS(=O)(=O)C1CN(C)C1 [Example 108, (2R)-2-Benzyl-3-(1-methylazetidin-3-ylsulfonyl)propionyl-L-(4-thiazolyl)AlaAmide of (2S,3R,4S)-2-Amino-1-cyclohexyl-3,4-dihydroxy-6-methylheptane] | 0.44 nM
5 | CC[C@H](O)[C@H](O)[C@H](CC1CCCCC1)NC(=O)[C@H](Cc1cscn1)NC(=O)[C@@H](CC(=O)N(C)CCn1cccn1)Cc1ccccc1 [Example 112, (2R)-2-Benzyl-3-[(2-pyrazol-1-ylethyl)methylaminocarbonyl]propionyl-L-(4-Thiazolyl)Ala Amide of (2S,3R,4S)-2-Amino-1-cyclohexyl-3,4-dihydroxyhexane] | 0.25 nM
6 | COc1ccc(C[C@H](NC(=O)N(C)CCc2ccccn2)C(=O)N[C@@H](Cc2cscn2)C(=O)N[C@@H](CC2CCCCC2)[C@@H](O)[C@@H](O)CC(C)C)cc1 [Example 115, [2-Pyridin-2-ylethyl(methyl)amino]carbonyl(O-methyl)pyrosine-L-(4-thiazolyl)Ala Amide of (2S,3R,4S)-2-Amino-1-cyclohexyl-3,4-dihydroxy-6-methylheptane] | 0.78 nM
7 | CC(C)C[C@H](O)[C@H](O)[C@H](CC1CCCCC1)NC(=O)[C@H](Cc1cscn1)NC(=O)[C@@H](CC(=O)N(C)CCn1cccc1)Cc1ccccc1 [Example 153, (2R)-2-Benzyl-3-[(2-pyrrol-1-ylethyl)methylcarbonyl]propionyl-L-(4-thiazolyl)Ala Amide of (2S,3R,4S)-2-Amino-1-cyclohexyl-3,4-dihydroxy-6-methylheptane] | 0.28 nM
8 | CC(C)C[C@H](O)[C@H](O)[C@H](CC1CCCCC1)NC(=O)[C@H](Cc1cscn1)NC(=O)[C@@H](CC(=O)CCCc1ccncc1)Cc1ccccc1 [Example 154, (2R)-2-Benzyl-3-[(2-pyridin-4-ylethyl)methylcarbonyl]propionyl-L-(4-thiazolyl)Ala Amide of (2S,3R,4S)-2-Amino-1-cyclohexyl-3,4-dihydroxy-6-methylheptane] | 0.21 nM
9 | CCCC[C@H](NC(=O)[C@@H](CC(=O)N(C)CCn1ccnc1)Cc1ccccc1)C(=O)N[C@@H](CC1CCCCC1)[C@@H](O)[C@@H](O)CC(C)C [Example 123, (2R)-2-Benzyl-3-[(2-imidazol-1-ylethyl)methylaminocarbonyl]propionyl-Nle Amide of (2S,3R,4S)-2-Amino-1-cyclohexyl-3,4-dihydroxy-6-methylheptane] | 0.26 nM
10 | CC(C)C[C@H](O)[C@H](O)[C@H](CC1CCCCC1)NC(=O)[C@H](Cn1cccn1)NC(=O)[C@@H](CC(=O)N(C)CCc1ccccn1)Cc1ccccc1 [Example 119, (2R)-2-Benzyl-3-[(2-pyridin-2-ylethyl)methylaminocarbonyl]propionyl-L-(1-pyrazolyl)Ala Amide of (2S,3R,4S)-2-Amino-1-cyclohexyl-3,4-dihydroxy-6-methylheptane] | 0.33 nM
11 | CC(C)C[C@H](O)[C@H](O)[C@H](CC1CCCCC1)NC(=O)[C@H](Cc1cscn1)NC(=O)[C@@H](CC(=O)N(C)CCn1cccn1)Cc1ccccc1 [Example 118, (2R)-2-Benzyl-3-[(2-pyrazol-1-ylethyl)methylaminocarbonyl]propionyl-L-(4-thiazolyl)Ala Amide of (2S,3R,4S)-2-Amino-1-cyclohexyl-3,4-dihydroxy-6-methylheptane] | 0.3 nM
12 | CON(C)C[C@@H](Cc1ccccc1)C(=O)N[C@@H](Cc1cscn1)C(=O)N[C@@H](CC1CCCCC1)[C@@H](O)[C@@H](O)CC(C)C [Example 100, (2R)-2-Benzyl-3-(N-methoxy-N-methylamino)propionyl-L-(4-thiazolyl)Ala Amide of (2S,3R,4S)-2-Amino-1-cyclohexyl-3,4-dihydroxy-6-methylheptane] | 1.8 nM
13 | CC(C)C[C@H](O)[C@H](O)[C@H](CC1CCCCC1)NC(=O)[C@H](Cc1cscn1)NC(=O)[C@@H](CC(=O)N1CCN(C2CC2)CC1)Cc1ccccc1 [Example 125, (2R)-2-Benzyl-3-[(4-cyclopropylpiperazin-1-yl)carbonyl]propionyl-L-(4-thiazolyl)Ala Amide of (2S,3R,4S)-2-Amino-1-cyclohexyl-3,4-dihydroxy-6-methylheptane] | 0.55 nM
14 | CC(C)C[C@H](O)[C@H](O)[C@H](CC1CCCCC1)NC(=O)[C@H](Cn1ccnc1)NC(=O)[C@@H](CC(=O)N(C)CCn1cccn1)Cc1ccccc1 [Example 107, (2R)-2-Benzyl-3-[(2-pyrazol-1-ylethyl)methylaminocarbonyl]propionyl-L-(1-imidazolyl)Ala Amide of (2S,3R,4S)-2-Amino-1-cyclohexyl-3,4-dihydroxy-6-methylheptane] | 0.89 nM
15 | CC(C)C[C@H](O)[C@H](O)[C@H](CC1CCCCC1)NC(=O)[C@H](Cc1cscn1)NC(=O)[C@H](Cc1ccccc1)Cn1cccn1 [Example 101, (2R)-2-Benzyl-3-pyrazol-1-ylpropionyl-L-(4-thiazolyl)Ala Amide of (2S,3R,4S)-2-Amino-1-cyclohexyl-3,4-dihydroxy-6-methylheptane] | 0.67 nM
16 | CC(C)C[C@H](O)[C@H](O)[C@H](CC1CCCCC1)NC(=O)[C@H](Cc1cscn1)NC(=O)[C@@H](CC(=O)N(C)CCN1CCOCC1)Cc1ccccc1 [Example 96, (2R)-2-Benzyl-3-[(2-morpholin-4-ylethyl)methylaminocarbonyl]propionyl-L-(4-thiazolyl)Ala Amide of (2S,3R,4S)-2-Amino-1-cyclohexyl-3,4-dihydroxy-6-methylheptane] | 0.4 nM
17 | CC(C)C[C@H](O)[C@H](O)[C@H](CC1CCCCC1)NC(=O)[C@H](Cc1cscn1)NC(=O)[C@@H](CC(=O)N(C)CCn1ccnc1)Cc1ccccc1 [Example 117, (2R)-2-Benzyl-3-[(2-imidazol-1-ylethyl)methylaminocarbonyl]propionyl-L-(4-thiazolyl)Ala Amide of (2S,3R,4S)-2-Amino-1-cyclohexyl-3,4-dihydroxy-6-methylheptane] | 0.3 nM
18 | CC(C)C[C@H](O)[C@H](O)[C@H](CC1CCCCC1)NC(=O)[C@H](Cc1cscn1)NC(=O)[C@@H](CC(=O)CS(=O)(=O)C(C)(C)C)Cc1ccccc1 [Example 98, (2R)-2-Benzyl-5-tert-butylsulfonyl-4-oxopentanoyl-L-(4-thiazolyl)Ala Amide of (2S,3R,4S)-2-Amino-1-cyclohexyl-3,4-dihydroxy-6-methylheptane] | 0.45 nM
19 | CC(C)C[C@H](O)[C@H](O)[C@H](CC1CCCCC1)NC(=O)[C@H](Cc1cscn1)NC(=O)[C@H](Cc1ccccc1)Cc1cscn1 [Example 97, (2R)-2-Benzyl-3-thiazol-4-ylpropionyl-L-(4-thiazolyl)Ala Amide of (2S,3R,4S)-2-Amino-1-cyclohexyl-3,4-dihydroxy-6-methylheptane] | 0.68 nM
20 | CC(C)C[C@H](O)[C@H](O)[C@H](CC1CCCCC1)NC(=O)[C@H](Cc1cscn1)NC(=O)[C@@H](CC(=O)N(C)CCc1ccccn1)Cc1ccccc1 [Example 114] | 0.33 nM
21 | CC(C)C[C@H](O)[C@H](O)[C@H](CC1CCCCC1)NC(=O)[C@H](Cn1cccn1)N(C)C(=O)C(Cc1ccccc1)NC(=O)N(C)CCc1ccccn1 (stereo partly drawn) [Example 156, [(2-pyridin-2-ylethyl)methylcarbonyl]phenylalanine-L-(N-α-methyl)-(1-pyrazolyl)alanine Amide of (2S,3R,4S)-2Amino-1-cyclohexyl-3,4-dihydroxy-6-methylheptane] | 1.3 nM
22 | CC(C)C[C@H](O)[C@H](O)[C@H](CC1CCCCC1)NC(=O)[C@H](Cc1cscn1)NC(=O)[C@@H](CC(=O)N(C)c1ccncc1)Cc1ccccc1 [Example 124, (2R)-2-Benzyl-3-[(N-pyridin-4-yl)methylaminocarbonyl]propionyl-L-(4-thiazolyl)Ala Amide of (2S,3R,4S)-2-Amino-1-cyclohexyl-3,4-dihydroxy-6-methylheptane] | 0.34 nM
23 | CC(C)C[C@H](O)[C@H](O)[C@H](CC1CCCCC1)NC(=O)[C@H](Cc1cscn1)NC(=O)[C@@H](CC(=O)CN1CCOCC1)Cc1ccccc1 [Example 95, (2R)-2-Benzyl-5-morpholin-4-yl-4-oxopentanoyl-L-(4-thiazolyl)Ala Amide of (2S,3R,4S)-2-Amino-1-cyclohexyl-3,4-dihydroxy-6-methylheptane] | 0.56 nM
